Measured values from patent US20240148744A1 (Celgene Corporation, priority 2021, published 2024).

Tested on: Onchocerca gutturosa adult male worms
Test: Onchocerca gutturosa in vitro screening model: adult worm motility score and MTT/formazan viability
Type: cell-based
Details: read-out: O. gutt Activity class

| SMILES | IC50 [µM] |
| --- | --- |
| O=S(=O)(Nc1cccc2cccnc12)c1cccc(-c2ccccc2)n1 [Compound 161, 6-phenyl-N-(quinolin-8-yl)pyridine-2-sulfonamide] | 0.5 to 5 |
| O=S(=O)(Nc1cccc2cccnc12)c1ccc(F)cc1F [Compound 275, 2,4-difluoro-N-(quinolin-8-yl)benzene-sulfonamide] | 0.2 to 0.5 |
| N#Cc1ccc(S(=O)(=O)Nc2cccc3cccnc23)cc1 [Compound 279, 4-cyano-N-(quinolin-8-yl)benzene-sulfonamide] | 0.2 to 0.5 |
| O=S(=O)(Nc1cccc2cccnc12)c1ccc(Cl)cc1 [Compound 285, 4-chloro-N-(quinolin-8-yl)benzene-sulfonamide] | < 0.2 |
| O=S(=O)(Nc1cccc2cccnc12)c1cnc(-c2ccccn2)s1 [Compound 170, 2-(pyridin-2-yl)-N-(quinolin-8-yl)thiazole-5-sulfonamide] | < 0.2 |
| CCn1ccnc1S(=O)(=O)Nc1ccc(OC)c2cccnc12 [Compound 57, 1-ethyl-N-(5-methoxyquin-olin-8-yl)-1H-imidazole-2-sulfonamide] | 0.5 to 5 |
| O=S(=O)(Nc1cccc2cccnc12)c1ncccc1C1CC1 [Compound 214] | 0.2 to 0.5 |
| CCn1ccnc1S(=O)(=O)Nc1cccc2cccnc12 [Compound 240, 1-ethyl-N-(quinolin-8-yl)-1H-imidazole-2-sulfonamide] | < 0.2 |
| O=S(=O)(Nc1cc(F)cc2cccnc12)c1ccccn1 [Compound 135, N-(6-fluoro-quinolin-8-yl)-pyridine-2-sulfonamide] | 0.5 to 5 |
| CN(C)c1cccnc1S(=O)(=O)Nc1cccc2c1CN(C1CC1)C2 [Compound 47, N-(2-cyclo-propyliso-indolin-4-yl)-3-(dimethyl-amino)pyr-idine-2-sulfonamide] | 0.5 to 5 |
| O=S(=O)(Nc1cccc2cccnc12)c1ccccc1C(F)(F)F [Compound 274, N-(quinolin-8-yl)-2-(trifluoromethyl) benzene-sulfonamide] | < 0.2 |
| O=S(=O)(Nc1ccnc2cccnc12)c1cc(C2CC2)ccn1 [Compound 195] | < 0.2 |
| Cc1ccc(NS(=O)(=O)c2ccccn2)c2ncccc12 [Compound 137, N-(5-methyl-quinolin-8-yl)pyridine-2-sulfonamide] | < 0.2 |
| CC(C)n1nccc1S(=O)(=O)Nc1cccc2c(Cl)ccnc12 [Compound 79, N-(4-chloro-quinolin-8-yl)-1-iso-propyl-1H-pyrazole-5-sulfonamide] | < 0.2 |
| O=S(=O)(Nc1cccc2cccnc12)c1ncccn1 [Compound 200, N-(quinolin-8-yl)pyrimidine-2-sulfonamide] | < 0.2 |
| Cc1cccnc1S(=O)(=O)Nc1cccc2ncc(N3CCOCC3)cc12 [Compound 24, 3-methyl-N-(3-morpho-linoquinolin-5-yl)pyridine-2-sulfonamide] | 0.5 to 5 |
| O=S(=O)(Nc1cccc2cccnc12)c1ccc(Cl)cn1 [Compound 259, 5-chloro-N-(quinolin-8-yl)pyridine-2-sulfonamide] | 0.5 to 5 |
| Cn1ccnc1S(=O)(=O)Nc1ccc(F)c2cccnc12 [Compound 133, N-(5-fluoro-quinolin-8-yl)-1-methyl-1H-imidazole-2-sulfonamide] | < 0.2 |
| O=S(=O)(Nc1cc(O)cc2cccnc12)c1ccccn1 [Compound 94, N-(6-hydroxy-quinolin-8-yl)pyridine-2-sulfonamide] | 0.5 to 5 |
| Cn1ccnc1S(=O)(=O)Nc1cccc2cccnc12 [Compound 251, 1-methyl-N-(quinolin-8-yl)-1H-imidazole-2-sulfonamide] | < 0.2 |

| SMILES | IC50 [µM] |
| --- | --- |
| Cc1cccnc1S(=O)(=O)Nc1cccc2ccc(N3CCC3)nc12 [Compound 23, N-(2-(azet-idin-1-yl)-quinolin-8-yl)-3-meth-ylpyridine-2-sulfonamide] | 0.5 to 5 |
| Cn1ccnc1S(=O)(=O)Nc1cc(F)cc2cccnc12 [Compound 134, N-(6-fluoro-quinolin-8-yl)-1-methyl-1H-imidazole-2-sulfonamide] | < 0.2 |
| N#Cc1cccc(S(=O)(=O)Nc2cccc3cccnc23)c1 [Compound 250, 3-cyano-N-(quinolin-8-yl)benzene-sulfonamide] | 0.5 to 5 |
| CN(C)c1cnc(S(=O)(=O)Nc2c(Cl)ccc3cccnc23)cn1 [Compound 49, N-(7-chloro-quinolin-8-yl)-5-(dimeth-ylamino)pyr-azine-2-sulfonamide] | 0.5 to 5 |
| Cc1cccnc1S(=O)(=O)Nc1cccc2ncc(N3CCC3)cc12 [Compound 20, N-(3-(azet-idin-1-yl)-quinolin-5-yl)-3-meth-ylpyridine-2-sulfonamide] | 0.2 to 0.5 |
| O=S(=O)(Nc1cccc2cncnc12)c1ccccn1 [Compound 202, N-(quinazolin-8-yl)pyridine-2-sulfonamide] | 0.5 to 5 |
| CN(C)c1cncc(S(=O)(=O)Nc2c(Cl)ccc3cccnc23)n1 [Compound 50, N-(7-chloro-quinolin-8-yl)-6-(dimeth-ylamino)pyr-azine-2-sulfonamide] | 0.5 to 5 |
| N#Cc1cccc(S(=O)(=O)Nc2cccc3cccnc23)n1 [Compound 162, 6-cyano-N-(quinolin-8-yl)pyridine-2-sulfonamide] | 0.5 to 5 |
| CCn1c(S(=O)(=O)Nc2cccc3cccnc23)nc(C)c1C [Compound 226, 1-ethyl-4,5-dimethyl-N-(quinolin-8-yl)-1H-imidazole-2-sulfonamide] | < 0.2 |
| O=S(=O)(Nc1c(Cl)ccc2cccnc12)c1cncc(N2CCCC2)n1 [Compound 74, N-(7-chloro-quinolin-8-yl)-6-(pyrrol-idin-1-yl)pyr-azine-2-sulfonamide] | 0.2 to 0.5 |
| CN(c1cccc2cccnc12)S(=O)(=O)c1ccccn1 [Compound 256, N-methyl-N-(quinolin-8-yl)pyridine-2-sulfonamide] | 0.5 to 5 |
| CC(C)n1nccc1S(=O)(=O)Nc1cccc2c1CN(C1CC1)C2 [Compound 40, N-(2-cyclo-propyliso-indolin-4-yl)-1-isopropyl-1H-pyrazole-5-sulfonamide] | 0.5 to 5 |
| CN1CCC(S(=O)(=O)Nc2cccc3cccnc23)CC1 [Compound 216, 1-methyl-N-(quinolin-8-yl)piperidine-4-sulfonamide] | 0.5 to 5 |
| CCc1ccc(NS(=O)(=O)c2nccn2C)c2ncccc12 [Compound 130, N-(5-ethyl-quinolin-8-yl)-1-methyl-1H-imidazole-2-sulfonamide] | 0.5 to 5 |
| Cc1cccnc1S(=O)(=O)Nc1cccc2c1CN(C1CC1)C2 [Compound 41, N-(2-cyclo-propyliso-indolin-4-yl)-3-methylpyr-idine-2-sulfonamide] | 0.5 to 5 |
| Cc1cc(C)cc(S(=O)(=O)Nc2cccc3cccnc23)c1 [Compound 254, 3,5-dimethyl-N-(quinolin-8-yl)benzene-sulfonamide] | < 0.2 |
| CN1CCc2cccc(NS(=O)(=O)c3ncccc3C3CC3)c2C1 [Compound 37, 3-cyclo-propyl-N-(2-methyl-1,2,3,4-tetra-hydroisoquin-olin-8-yl)pyr-idine-2-sulfonamide] | 0.2 to 0.5 |
| O=S(=O)(Nc1cccc2cccnc12)c1ccc(Cl)cc1Cl [Compound 278, 2,4-dichloro-N-(quinolin-8-yl)benzene-sulfonamide] | 0.2 to 0.5 |
| Cc1cccnc1S(=O)(=O)Nc1cccc2c1N(C1CC1)CCC2 [Compound 38, N-(1-cyclo-propyl-1,2,3,4-tetra-hydroquin-olin-8-yl)-3-methylpyr-idine-2-sulfonamide] | 0.5 to 5 |
